Article PMC3104677 (Molecular microbiology, 2009)

Molecular target: T1, NrpR (Methanococcus maripaludis, UniProt Q6LZL7)
T1 sequence (Q6LZL7 1-536): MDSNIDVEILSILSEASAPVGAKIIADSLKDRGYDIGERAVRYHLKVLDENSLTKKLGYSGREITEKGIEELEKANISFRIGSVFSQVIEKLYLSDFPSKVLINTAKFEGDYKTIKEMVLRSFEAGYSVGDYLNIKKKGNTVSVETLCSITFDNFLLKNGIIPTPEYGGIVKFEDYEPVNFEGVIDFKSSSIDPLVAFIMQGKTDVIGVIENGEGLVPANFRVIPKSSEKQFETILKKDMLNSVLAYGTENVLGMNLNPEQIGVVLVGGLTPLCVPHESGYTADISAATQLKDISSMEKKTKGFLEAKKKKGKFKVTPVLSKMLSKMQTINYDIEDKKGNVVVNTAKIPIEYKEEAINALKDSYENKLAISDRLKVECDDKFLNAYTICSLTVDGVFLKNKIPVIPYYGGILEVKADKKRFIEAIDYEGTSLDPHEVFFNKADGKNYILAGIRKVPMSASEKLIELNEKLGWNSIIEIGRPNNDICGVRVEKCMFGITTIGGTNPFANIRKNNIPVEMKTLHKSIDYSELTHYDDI
Experiment: EMSA, inhibition of NrpR binding to […]-labelled glnK1 operator DNA
Settings: inducer ligand; wild type glnK1 operator region O1+O2; 0.1 and 0.4 mM 2OG

`O=C(O)CCC(=O)C(=O)O` [2-oxoglutarate] was tested, and the “EMSA, inhibition of NrpR binding to 32P-labelled glnK1 operator DNA” value was 2OG indicates the nitrogen state of the cell and is the inducer ligand.
